Key:
Assay type in all cases: in vivo
[1] = test system: Kochia (Kochia scoparia); assay: Test A preemergence; conditions: Bassia scoparia, pre-emergence, 240 h, 0 to 100 scale where 0 is no effect and 100 is complete control, read-out: Kochia plant response rating
In short: (§1)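 Each rating is a visual injury score from 0 to 100 given about 10 d after treatment, judged against untreated controls kept alongside in the greenhouse. In loam soil–sand blend, seeds got a preemergence directed soil spray, while postemergence plants were 2 to 10 cm tall at spraying.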

[2] = test system: barnyardgrass (Echinochloa crus-galli); assay: Test A preemergence; conditions: Echinochloa crus-galli, pre-emergence, 240 h, 0 to 100 scale where 0 is no effect and 100 is complete control, read-out: Barnyardgrass plant response rating
In short: as §1

[3] = test system: giant foxtail (Setaria faberii); assay: Test A preemergence; conditions: Setaria faberi, pre-emergence, 240 h, 0 to 100 scale where 0 is no effect and 100 is complete control, read-out: Foxtail, Giant plant response rating
In short: as §1

[4] = test system: pigweed (Amaranthus retroflexus); assay: Test A preemergence; conditions: Amaranthus retroflexus, pre-emergence, 240 h, 0 to 100 scale where 0 is no effect and 100 is complete control, read-out: Pigweed plant response rating
[5] = test system: ragweed (common ragweed, Ambrosia elatior); assay: Test A preemergence; conditions: Ambrosia artemisiifolia, pre-emergence, 240 h, 0 to 100 scale where 0 is no effect and 100 is complete control, read-out: Ragweed plant response rating
In short: as §1

[6] = test system: ryegrass, Italian (Italian ryegrass, Lolium multiflorum); assay: Test A preemergence; conditions: Lolium multiflorum, pre-emergence, 240 h, 0 to 100 scale where 0 is no effect and 100 is complete control, read-out: Ryegrass, Italian plant response rating
In short: as §1

[7] = test system: Galium (catchweed bedstraw, Galium aparine); assay: Test A postemergence; conditions: Galium, post-emergence, 240 h
In short: as §1

[8] = test system: Kochia (Kochia scoparia); assay: Test A postemergence; conditions: Bassia scoparia, post-emergence, 240 h
In short: as §1

[9] = test system: barnyardgrass (Echinochloa crus-galli); assay: Test A postemergence; conditions: Echinochloa crus-galli, post-emergence, 240 h
In short: as §1

[10] = test system: blackgrass (Alopecurus myosuroides); assay: Test A postemergence; conditions: Alopecurus myosuroides, post-emergence, 240 h
In short: as §1

[11] = test system: corn (Zea mays); assay: Test A postemergence; conditions: Zea mays, post-emergence, 240 h
In short: as §1

[12] = test system: giant foxtail (Setaria faberii); assay: Test A postemergence; conditions: Setaria faberi, post-emergence, 240 h
In short: as §1

[13] = test system: pigweed (Amaranthus retroflexus); assay: Test A postemergence; conditions: Amaranthus retroflexus, post-emergence, 240 h
In short: as §1

[14] = test system: ragweed (common ragweed, Ambrosia elatior); assay: Test A postemergence; conditions: Ambrosia artemisiifolia, post-emergence, 240 h
In short: as §1

[15] = test system: ryegrass, Italian (Italian ryegrass, Lolium multiflorum); assay: Test A postemergence; conditions: Lolium multiflorum, post-emergence, 240 h
In short: as §1

[16] = test system: wheat (Triticum aestivum); assay: Test A postemergence; conditions: Triticum aestivum, post-emergence, 240 h
In short: as §1

[17] = test system: barnyardgrass (Echinochloa crus-galli); assay: Test B flooded paddy test; conditions: Echinochloa crus-galli, 250 g ai/ha, Flood; 0 to 100 scale where 0 is no effect and 100 is complete control; read-out: Barnyardgrass plant response rating
In short: (§2)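 Visual ratings (0 none to 100 complete control) are relative to untreated plants, taken 13–15 d after treatment in a greenhouse. Test material went straight into floodwater standing 3 cm above the soil, kept constant, on plants at the 2-leaf stage.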

[18] = test system: ducksalad (Heteranthera limosa); assay: Test B flooded paddy test; conditions: Heteranthera limosa, 250 g ai/ha, Flood; 0 to 100 scale where 0 is no effect and 100 is complete control; read-out: Ducksalad plant response rating
In short: as §2

[19] = test system: rice (Oryra sativa); assay: Test B flooded paddy test; conditions: Oryza sativa, 250 g ai/ha, Flood; 0 to 100 scale where 0 is no effect and 100 is complete control; read-out: Rice plant response rating
In short: as §2

[20] = test system: sedge, umbrella (small-flower umbrella sedge, Cyperus difformis); assay: Test B flooded paddy test; conditions: Cyperus difformis, 250 g ai/ha, Flood; 0 to 100 scale where 0 is no effect and 100 is complete control; read-out: Sedge, Umbrella plant response rating
In short: as §2

[21] = 125 g ai/ha, preemergence, approx. 10 d

## CN1C[C@H](c2cccc([Si](C)(C)C)c2)[C@@H](C(=O)Nc2cccc(F)c2F)C1=O [Compound 1166]
[1]; 31 g ai/ha, Preemergence
  pest or weed control at 31 g/ha: 0%
[1]; [21]
  pest or weed control at 125 g/ha: 0%
[2]; 31 g ai/ha, Preemergence
  pest or weed control at 31 g/ha: 0%
[2]; [21]
  pest or weed control at 125 g/ha: 20%
[3]; 31 g ai/ha, Preemergence
  pest or weed control at 31 g/ha: 20%
[3]; [21]
  pest or weed control at 125 g/ha: 80%
[4]; 31 g ai/ha, Preemergence
  pest or weed control at 31 g/ha: 0%
[4]; [21]
  pest or weed control at 125 g/ha: 0%
[5]; 31 g ai/ha, Preemergence
  pest or weed control at 31 g/ha: 0%
[5]; [21]
  pest or weed control at 125 g/ha: 0%
[6]; 31 g ai/ha, Preemergence
  pest or weed control at 31 g/ha: 0%
[6]; [21]
  pest or weed control at 125 g/ha: 0%
[7]; 125 g ai/ha, postemergence, visual injury vs untreated controls after approx. 10 d, 0 = no effect, 100 = complete control, read-out: Galium plant response rating (0 to 100 scale)
  pest or weed control at 125 g/ha: 0%
[7]; Postemergence, 31 g ai/ha, visual injury after approx. 10 d, 0 to 100 scale, 0 no effect, 100 complete control, read-out: Plant response rating, Galium
  pest or weed control at 31 g/ha: 0%
[8]; 125 g ai/ha, postemergence, visual injury vs untreated controls after approx. 10 d, 0 = no effect, 100 = complete control, read-out: Kochia plant response rating (0 to 100 scale)
  pest or weed control at 125 g/ha: 0%
[8]; Postemergence, 31 g ai/ha, visual injury after approx. 10 d, 0 to 100 scale, 0 no effect, 100 complete control, read-out: Plant response rating, Kochia
  pest or weed control at 31 g/ha: 0%
[9]; 125 g ai/ha, postemergence, visual injury vs untreated controls after approx. 10 d, 0 = no effect, 100 = complete control, read-out: Barnyardgrass plant response rating (0 to 100 scale)
  pest or weed control at 125 g/ha: 0%
[9]; Postemergence, 31 g ai/ha, visual injury after approx. 10 d, 0 to 100 scale, 0 no effect, 100 complete control, read-out: Plant response rating, Barnyardgrass
  pest or weed control at 31 g/ha: 0%
[10]; 125 g ai/ha, postemergence, visual injury vs untreated controls after approx. 10 d, 0 = no effect, 100 = complete control, read-out: Blackgrass plant response rating (0 to 100 scale)
  pest or weed control at 125 g/ha: 0%
[10]; Postemergence, 31 g ai/ha, visual injury after approx. 10 d, 0 to 100 scale, 0 no effect, 100 complete control, read-out: Plant response rating, Blackgrass
  pest or weed control at 31 g/ha: 0%
[11]; 125 g ai/ha, postemergence, visual injury vs untreated controls after approx. 10 d, 0 = no effect, 100 = complete control, read-out: Corn plant response rating (0 to 100 scale)
  plant injury at 125 g/ha: 0%
[11]; Postemergence, 31 g ai/ha, visual injury after approx. 10 d, 0 to 100 scale, 0 no effect, 100 complete control
  Corn plant response rating (crop injury, 0 = no effect, 100 = complete kill) at 31 g/ha: 0%
[12]; 125 g ai/ha, postemergence, visual injury vs untreated controls after approx. 10 d, 0 = no effect, 100 = complete control, read-out: Foxtail, Giant plant response rating (0 to 100 scale)
  pest or weed control at 125 g/ha: 20%
[12]; Postemergence, 31 g ai/ha, visual injury after approx. 10 d, 0 to 100 scale, 0 no effect, 100 complete control, read-out: Plant response rating, Foxtail, Giant
  pest or weed control at 31 g/ha: 0%
[13]; 125 g ai/ha, postemergence, visual injury vs untreated controls after approx. 10 d, 0 = no effect, 100 = complete control, read-out: Pigweed plant response rating (0 to 100 scale)
  pest or weed control at 125 g/ha: 0%
[13]; Postemergence, 31 g ai/ha, visual injury after approx. 10 d, 0 to 100 scale, 0 no effect, 100 complete control, read-out: Plant response rating, Pigweed
  pest or weed control at 31 g/ha: 0%
[14]; 125 g ai/ha, postemergence, visual injury vs untreated controls after approx. 10 d, 0 = no effect, 100 = complete control, read-out: Ragweed plant response rating (0 to 100 scale)
  pest or weed control at 125 g/ha: 0%
[14]; Postemergence, 31 g ai/ha, visual injury after approx. 10 d, 0 to 100 scale, 0 no effect, 100 complete control, read-out: Plant response rating, Ragweed
  pest or weed control at 31 g/ha: 0%
[15]; 125 g ai/ha, postemergence, visual injury vs untreated controls after approx. 10 d, 0 = no effect, 100 = complete control, read-out: Ryegrass, Italian plant response rating (0 to 100 scale)
  pest or weed control at 125 g/ha: 0%
[15]; Postemergence, 31 g ai/ha, visual injury after approx. 10 d, 0 to 100 scale, 0 no effect, 100 complete control, read-out: Plant response rating, Ryegrass, Italian
  pest or weed control at 31 g/ha: 0%
[16]; 125 g ai/ha, postemergence, visual injury vs untreated controls after approx. 10 d, 0 = no effect, 100 = complete control, read-out: Wheat plant response rating (0 to 100 scale)
  plant injury at 125 g/ha: 0%
[16]; Postemergence, 31 g ai/ha, visual injury after approx. 10 d, 0 to 100 scale, 0 no effect, 100 complete control, read-out: Plant response rating, Wheat
  plant injury at 31 g/ha: 0%
[17]
  pest or weed control at 250 g/ha: 40%
[18]
  pest or weed control at 250 g/ha: 30%
[19]
  pest or weed control at 250 g/ha: 25%
[20]
  pest or weed control at 250 g/ha: 0%

Reference: patent US12077503B2, “Substituted cyclic amides and their use as herbicides” (FMC CORPORATION, priority 2015, dated 2024)
